Data reported in patent US20150158868A1, “COMPOUNDS USEFUL AS INHIBITORS OF ATR KINASE” (Vertex Pharmaceuticals Incorporated, priority 2013, published 2015).
pKi: −log10 of the molar value.

Columns and labels:
[1] = molecular target: T1, ATR kinase (full-length ATR) (Homo sapiens, UniProt Q13535); assay: ATR Inhibition Assay (radioactive-phosphate incorporation); assay type: biochemical; settings: Ki(app); 5 nM full-length ATR, 10 μM ATP, 25° C.
T1 construct: Assays were carried out at 25° C. in the presence of 5 nM full-length ATR
Description: Compounds were screened for their ability to inhibit ATR kinase using a radioactive-phosphate incorporation assay. Assays were carried out in a mixture of 50 mM Tris/HCl (pH 7.5), 10 mM MgCl2 and 1 mM DTT. Final substrate concentrations were 10 μM [γ-33P]ATP (3 mCi 33P ATP/mmol ATP, Perkin Elmer) and 800 μM target peptide (ASELPASQPQPFSAKKK).
Assays were carried out at 25° C. in the presence of 5 nM full-length ATR. An assay stock buffer solution was prepared containing all of the reagents listed above, with the exception of ATP and the test compound of interest. 13.5 μL of the stock solution was placed in a 96 well plate followed by addition of 2 μL of DMSO stock containing serial dilutions of the test compound (typically starting from a final concentration of 15 μM with 3-fold serial dilutions) in duplicate (final DMSO concentration 7%). The plate was pre-incubated for 10 minutes at 25° C. and the reaction initiated by addition of 15 μL [γ-33P]ATP (final concentration 10 μM).
The reaction was stopped after 24 hours by the addition of 30 μL 0.1M phosphoric acid containing 2 mM ATP. A multiscreen phosphocellulose filter 96-well plate (Millipore, Cat no. MAPHN0B50) was pretreated with 100 μL 0.2M phosphoric acid prior to the addition of 45 μL of the stopped assay mixture. The plate was washed with 5×200PL 0.2M phosphoric acid. After drying, 100 μL Optiphase ‘SuperMix’ liquid scintillation cocktail (Perkin Elmer) was added to the well prior to scintillation counting (1450 Microbeta Liquid Scintillation Counter, Wallac).
After removing mean background values for all of the data points, Ki(app) data were calculated from non-linear regression analysis of the initial rate data using the Prism software package (GraphPad Prism version 3.0cx for Macintosh, GraphPad Software, San Diego Calif., USA).
Compounds with a Ki value of <0.01 μM are marked with “+++.” Compounds with a Ki value >0.01 μM but <1 μM are marked with “++.” Compounds with a Ki value >1 μM but <5 μM are marked with “+.”

[2] = molecular target: T2, ATR kinase, in the presence of partner proteins ATRIP, CLK2 and TopBP1 (Homo sapiens, UniProt Q13535); assay: ATR-Complex Inhibition Assay (radioactive-phosphate incorporation); assay type: biochemical; settings: Ki(app); 4 nM full-length ATR with ATRIP, CLK2 and TopBP1(A891-S1105), 10 μM ATP, 25° C.
T2 construct: in the presence of 4 nM full-length ATR, 40 nM full-length ATRIP
Description: Compounds were screened for their ability to inhibit ATR kinase, in the presence of partner proteins ATRIP, CLK2 and TopBP1, using a radioactive-phosphate incorporation assay. Assays were carried out in a mixture of 50 mM Tris/HCl (pH 7.5), 10 mM MgCl2 and 1 mM DTT. Final substrate concentrations were 10 μM [g-33P]ATP (3.5 μCi 33P ATP/nmol ATP, Perkin Elmer, Massachusetts, USA) and 800 μM target peptide (ASELPASQPQPFSAKKK, Isca Biochemicals, Cambridgeshire, UK).
Assays were carried out at 25° C. in the presence of 4 nM full-length ATR, 40 nM full-length ATRIP, 40 nM full-length CLK2 and 600 nM TopBP1(A891-S1105). An enzyme stock buffer solution was prepared containing all of the reagents listed above, with the exception of target peptide, ATP and the test compound of interest. This enzyme stock was pre-incubated for 30 minutes at 25° C. 8.5 μL of the enzyme stock solution was placed in a 96-well plate followed by addition of 5 μl of target peptide and 2 μL of DMSO stock containing serial dilutions of the test compound (typically starting from a final concentration of 1.5 μM with 2.5-fold serial dilutions) in duplicate (final DMSO concentration 7%). The plate was pre-incubated for 10 minutes at 25° C. and the reaction initiated by addition of 15 μL [g-33P]ATP (final concentration 10 μM).
The reaction was stopped after […] by the addition of 30 μL 0.3 M phosphoric acid containing 2 mM ATP. A phosphocellulose filter 96-well plate (Multiscreen HTS MAPHNOB50, Merck-Millipore, Massachusetts, USA) was pretreated with 100 μL 0.1 M phosphoric acid prior to the addition of 45 μL of the stopped assay mixture. The plate was washed with 5×200 μL 0.1 M phosphoric acid. […]
After removing mean background values for all of the data points, Ki(app) data were calculated from non-linear regression analysis of the initial rate data using the Prism software package (GraphPad Prism version 6.0c for Macintosh, GraphPad Software Inc., San Diego, USA). […]

[3] = system: HCT116 colorectal cancer cells; assay: Cisplatin Sensitization Assay (96 h cell viability MTS); assay type: cell-based; settings: concentration of compound required to reduce the IC50 of Cisplatin alone by at least 3-fold; HCT116, 96 h MTS
Description: Compounds can be screened for their ability to sensitize HCT116 colorectal cancer cells to Cisplatin using a 96 h cell viability (MTS) assay. […] Compounds and Cisplatin are then both added simultaneously to the cell media in 2-fold serial dilutions from a top final concentration of 10 μM as a full matrix of concentrations in a final cell volume of 200 μl, and the cells are then incubated at 37° C. in 5% CO2. After 96 h, 40 μl of MTS reagent (Promega G358a) is added to each well and the cells are incubated for 1 h at 37° C. in 5% CO2. Finally, absorbance is measured at 490 nm using a SpectraMax Plus 384 reader (Molecular Devices) and the concentration of compound required to reduce the IC50 of Cisplatin alone by at least 3-fold (to 1 decimal place) can be reported.
Compounds with a Cisplatin sensitization value of <0.02 μM are marked with “+++.” Compounds with a Cisplatin sensitization value >0.02 μM but <0.2 μM are marked with “++.” Compounds with a Cisplatin sensitization value >0.2 μM but <5 μM are marked with “+.”

T2 sequence (Q13535 whole entry): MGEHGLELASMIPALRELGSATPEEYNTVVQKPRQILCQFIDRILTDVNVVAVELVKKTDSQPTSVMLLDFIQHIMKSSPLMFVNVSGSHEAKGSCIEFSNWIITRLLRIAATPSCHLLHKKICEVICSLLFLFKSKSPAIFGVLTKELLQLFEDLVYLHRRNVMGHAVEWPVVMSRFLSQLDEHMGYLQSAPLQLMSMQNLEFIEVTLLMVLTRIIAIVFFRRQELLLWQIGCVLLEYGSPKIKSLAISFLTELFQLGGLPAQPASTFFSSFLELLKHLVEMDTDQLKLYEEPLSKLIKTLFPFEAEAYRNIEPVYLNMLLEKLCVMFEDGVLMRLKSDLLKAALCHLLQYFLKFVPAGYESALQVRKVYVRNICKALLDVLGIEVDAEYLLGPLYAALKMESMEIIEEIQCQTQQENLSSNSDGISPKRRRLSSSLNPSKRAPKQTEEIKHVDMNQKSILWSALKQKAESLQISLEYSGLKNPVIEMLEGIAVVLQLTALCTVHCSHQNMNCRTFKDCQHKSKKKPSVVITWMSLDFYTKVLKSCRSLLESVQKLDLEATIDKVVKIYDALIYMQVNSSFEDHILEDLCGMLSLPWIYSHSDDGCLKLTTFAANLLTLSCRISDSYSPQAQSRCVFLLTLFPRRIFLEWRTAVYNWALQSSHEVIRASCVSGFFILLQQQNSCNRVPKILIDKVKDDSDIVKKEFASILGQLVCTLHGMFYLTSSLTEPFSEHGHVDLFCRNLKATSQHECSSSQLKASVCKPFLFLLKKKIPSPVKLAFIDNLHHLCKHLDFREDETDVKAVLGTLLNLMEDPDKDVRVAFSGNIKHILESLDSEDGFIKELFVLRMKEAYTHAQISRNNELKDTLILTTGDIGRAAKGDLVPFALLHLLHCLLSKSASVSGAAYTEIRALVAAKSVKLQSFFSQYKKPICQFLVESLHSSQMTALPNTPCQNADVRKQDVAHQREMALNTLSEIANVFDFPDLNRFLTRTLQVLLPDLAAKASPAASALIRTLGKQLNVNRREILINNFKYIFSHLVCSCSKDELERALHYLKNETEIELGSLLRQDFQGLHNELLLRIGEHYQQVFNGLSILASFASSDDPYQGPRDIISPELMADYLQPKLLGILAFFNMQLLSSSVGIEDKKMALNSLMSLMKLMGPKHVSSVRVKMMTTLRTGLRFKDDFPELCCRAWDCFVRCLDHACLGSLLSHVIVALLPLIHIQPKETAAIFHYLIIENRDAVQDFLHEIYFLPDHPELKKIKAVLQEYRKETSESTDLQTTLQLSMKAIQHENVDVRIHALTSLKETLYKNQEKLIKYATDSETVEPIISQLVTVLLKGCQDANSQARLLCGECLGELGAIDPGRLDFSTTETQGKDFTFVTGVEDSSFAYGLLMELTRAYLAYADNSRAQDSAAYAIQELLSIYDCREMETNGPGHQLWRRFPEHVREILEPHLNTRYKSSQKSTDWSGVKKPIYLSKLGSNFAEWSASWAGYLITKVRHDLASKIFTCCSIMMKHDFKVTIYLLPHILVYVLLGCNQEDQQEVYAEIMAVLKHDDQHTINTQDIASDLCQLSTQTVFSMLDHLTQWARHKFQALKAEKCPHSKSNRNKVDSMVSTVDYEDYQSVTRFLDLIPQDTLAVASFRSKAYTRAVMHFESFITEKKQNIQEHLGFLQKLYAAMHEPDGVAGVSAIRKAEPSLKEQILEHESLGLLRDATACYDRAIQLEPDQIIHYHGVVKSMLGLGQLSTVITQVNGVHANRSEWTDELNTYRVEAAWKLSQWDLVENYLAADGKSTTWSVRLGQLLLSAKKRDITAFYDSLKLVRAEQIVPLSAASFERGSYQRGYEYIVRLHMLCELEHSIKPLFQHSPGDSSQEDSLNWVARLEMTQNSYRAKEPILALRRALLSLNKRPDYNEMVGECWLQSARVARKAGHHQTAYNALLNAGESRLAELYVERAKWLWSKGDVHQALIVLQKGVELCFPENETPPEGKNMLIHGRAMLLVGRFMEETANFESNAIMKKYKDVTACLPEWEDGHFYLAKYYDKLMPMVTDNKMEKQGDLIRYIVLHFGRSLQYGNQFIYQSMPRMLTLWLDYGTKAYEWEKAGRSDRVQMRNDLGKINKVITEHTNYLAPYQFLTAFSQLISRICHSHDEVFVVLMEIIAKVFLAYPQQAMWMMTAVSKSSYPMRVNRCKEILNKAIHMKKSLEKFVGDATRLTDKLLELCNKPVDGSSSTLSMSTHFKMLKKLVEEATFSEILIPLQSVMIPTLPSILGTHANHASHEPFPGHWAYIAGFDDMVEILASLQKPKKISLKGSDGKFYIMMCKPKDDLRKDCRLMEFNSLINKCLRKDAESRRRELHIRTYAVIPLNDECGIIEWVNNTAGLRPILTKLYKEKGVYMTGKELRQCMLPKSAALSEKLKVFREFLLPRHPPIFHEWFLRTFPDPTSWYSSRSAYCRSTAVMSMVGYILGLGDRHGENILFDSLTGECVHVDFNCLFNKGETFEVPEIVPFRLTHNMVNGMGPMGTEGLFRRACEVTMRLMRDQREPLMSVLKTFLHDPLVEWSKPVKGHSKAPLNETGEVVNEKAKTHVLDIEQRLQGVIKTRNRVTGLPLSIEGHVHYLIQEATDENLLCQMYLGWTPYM
T2 sequence (Q8WXE1 whole entry partner): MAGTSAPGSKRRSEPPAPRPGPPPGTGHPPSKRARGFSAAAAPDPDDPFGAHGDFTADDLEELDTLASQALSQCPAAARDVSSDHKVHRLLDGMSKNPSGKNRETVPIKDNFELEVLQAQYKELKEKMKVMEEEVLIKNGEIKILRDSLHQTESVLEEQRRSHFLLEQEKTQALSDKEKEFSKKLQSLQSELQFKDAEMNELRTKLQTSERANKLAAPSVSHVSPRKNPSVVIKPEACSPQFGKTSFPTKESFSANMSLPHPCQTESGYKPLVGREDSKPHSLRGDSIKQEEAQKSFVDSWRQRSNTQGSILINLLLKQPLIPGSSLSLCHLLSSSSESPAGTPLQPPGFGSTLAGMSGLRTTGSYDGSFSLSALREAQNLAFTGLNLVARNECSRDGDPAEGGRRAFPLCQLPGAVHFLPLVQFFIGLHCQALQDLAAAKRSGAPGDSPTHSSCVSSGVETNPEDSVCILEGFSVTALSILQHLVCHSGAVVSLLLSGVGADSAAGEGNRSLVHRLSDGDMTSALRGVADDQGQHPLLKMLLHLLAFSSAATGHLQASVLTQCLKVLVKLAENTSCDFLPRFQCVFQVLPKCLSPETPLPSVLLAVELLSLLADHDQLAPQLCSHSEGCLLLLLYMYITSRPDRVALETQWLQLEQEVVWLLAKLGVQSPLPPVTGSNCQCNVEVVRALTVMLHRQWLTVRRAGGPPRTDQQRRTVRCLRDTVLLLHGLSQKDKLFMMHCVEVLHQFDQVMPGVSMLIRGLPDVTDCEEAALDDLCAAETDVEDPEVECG
T2 sequence (Q92547 978-1192 partner limits assumed): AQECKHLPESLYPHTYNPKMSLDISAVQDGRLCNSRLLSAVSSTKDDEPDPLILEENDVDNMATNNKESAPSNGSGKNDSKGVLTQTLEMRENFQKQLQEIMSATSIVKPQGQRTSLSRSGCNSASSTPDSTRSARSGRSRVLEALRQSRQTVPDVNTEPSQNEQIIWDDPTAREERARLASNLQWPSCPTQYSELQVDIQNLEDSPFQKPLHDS
T1 sequence (Q13535 whole entry): as the sequence (Q13535 whole entry) above

pKi [1] | pKi [2] | Structure (SMILES) | Cisplatin Sensitization Assay [3]
6.00 to 8.00 | > 8.00 | CCOc1ccncc1NC(=O)c1c(N)nn2ccccc12 [I-B-1, 2-amino-N-(4-ethoxypyridin-3-yl)pyrazolo[1,5-a]pyridine-3-carboxamide] | +++ (Compounds with a Cisplatin sensitization value of <0.02 μM)
6.00 to 8.00 |  | CN1CCC(Oc2ccncc2NC(=O)c2c(N)nc3ccc(C(F)(F)F)nn23)CC1 [I-A-2, 2-amino-N-(4-((1-methylpiperidin-4-yl)oxy)pyridin-3-yl)-6-(trifluoromethyl)imidazo[1,2-b]pyridazine-3-carboxamide] | ++ (Compounds with a Cisplatin sensitization value >0.02 μM but <0.2 μM)
5.30 to 6.00 | > 8.00 | CN1CCN(C(=O)C2CCN(c3c(F)cncc3NC(=O)c3c(N)nn4ccccc34)CC2)CC1 [I-B-3, 2-amino-N-(5-fluoro-4-(4-(4-methylpiperazine-1-carbonyl)piperidin-1-yl)pyridin-3-yl)pyrazolo[1,5-a]pyridine-3-carboxamide] | + (Compounds with a Cisplatin sensitization value >0.2 μM but <5 μM)
6.00 to 8.00 | > 8.00 | CN1CCC(Oc2ccncc2NC(=O)c2c(N)nc3cccnn23)CC1 [I-A-1, 2-amino-N-(4-((1-methylpiperidin-4-yl)oxy)pyridin-3-yl)imidazo[1,2-b]pyridazine-3-carboxamide] | ++ (Compounds with a Cisplatin sensitization value >0.02 μM but <0.2 μM)
6.00 to 8.00 |  | CN1CCN(C(=O)C2CCN(c3c(F)cncc3NC(=O)c3c(N)nc4cccnn34)CC2)CC1 [I-A-3, 2-amino-N-(5-fluoro-4-(4-(4-methylpiperazine-1-carbonyl)piperidin-1-yl)pyridin-3-yl)imidazo[1,2-b]pyridazine-3-carboxamide] | +++ (Compounds with a Cisplatin sensitization value of <0.02 μM)
